What was measured:
[1] = system: Human immunodeficiency virus 1; test: Antiviral activity against HIV1 infected in human MT4 cells assessed as protection against virus-induced cytopathic effect; format: functional, organism-based; settings: Human immunodeficiency virus 1, MT4
[2] = Cytotoxicity against human MT4 cells assessed as reduction of cell viability; format: cell-based

IC50 [1] [µM] | Compound | CC50 [2] [µM]
1.5 | Nc1ncnc2c1ncn2[C@H]1C=C[C@@H](OCP(=O)(O)O)O1 | > 600
1.69 | C#C[C@@]1(OCP(=O)(O)O)C=C[C@H](n2cnc3c(N)ncnc32)O1 | > 100

The next lines start with the compound.

Compound | IC50 [1] [µM] | CC50 [2] [µM]
C#C[C@@]1(OCP(=O)(O)O)C=C[C@H](n2cc(C)c(=O)[nH]c2=O)O1 | > 100 | > 100
Cc1cn([C@H]2C=C[C@@H](OCP(=O)(O)O)O2)c(=O)[nH]c1=O | 12 | > 600
Cc1cn([C@H]2C=C[C@@H](CO)O2)c(=O)[nH]c1=O [STAVUDINE] | 1.2 | > 600
